In brackets after ≈: the same amount, converted by molar mass. Activity calls are given as the source filed them. The calls are words filed in the database; no cut-off is given here.
Columns and labels:
HT-22 [1] = assay: Down regulation of tau protein expression in mouse HT22 cells transfected with pRK5-GFP-Tau plasmid at 2.5 to 20 uM by Western blot analysis; format: functional, cell-based; settings: dose 2.5-20 µM
[2] = Effect on tau protein level in mouse HT22 cells transfected with pRK5-GFP-Tau plasmid assessed as fluorescence intensity at 10 uM by fluorescence microscopy (Rvb <= 40.9); format: functional, HT-22
HT-22 [3] = assay: Cytotoxicity against mouse HT22 cells assessed as effect on cell viability at 10 uM by MTT assay; format: cell-based; settings: ht-22, 10 µM
SH-SY5Y = assay: Neuroprotective activity against amyloid beta (1 to 42)-induced cytotoxicity in human SH-SY5Y cells assessed as cell viability at 1 uM by MTT assay (reference value: 50.3%); format: functional; settings: read-out: Activity
Cholinesterase [4] = target: T1, Cholinesterase (Homo sapiens, UniProt P06276); assay: Inhibition of human serum BuChE assessed as residual activity at IC50 using acetylcholine iodide as substrate measured by Ellman's method relative to control
T1 sequence (P06276 whole entry): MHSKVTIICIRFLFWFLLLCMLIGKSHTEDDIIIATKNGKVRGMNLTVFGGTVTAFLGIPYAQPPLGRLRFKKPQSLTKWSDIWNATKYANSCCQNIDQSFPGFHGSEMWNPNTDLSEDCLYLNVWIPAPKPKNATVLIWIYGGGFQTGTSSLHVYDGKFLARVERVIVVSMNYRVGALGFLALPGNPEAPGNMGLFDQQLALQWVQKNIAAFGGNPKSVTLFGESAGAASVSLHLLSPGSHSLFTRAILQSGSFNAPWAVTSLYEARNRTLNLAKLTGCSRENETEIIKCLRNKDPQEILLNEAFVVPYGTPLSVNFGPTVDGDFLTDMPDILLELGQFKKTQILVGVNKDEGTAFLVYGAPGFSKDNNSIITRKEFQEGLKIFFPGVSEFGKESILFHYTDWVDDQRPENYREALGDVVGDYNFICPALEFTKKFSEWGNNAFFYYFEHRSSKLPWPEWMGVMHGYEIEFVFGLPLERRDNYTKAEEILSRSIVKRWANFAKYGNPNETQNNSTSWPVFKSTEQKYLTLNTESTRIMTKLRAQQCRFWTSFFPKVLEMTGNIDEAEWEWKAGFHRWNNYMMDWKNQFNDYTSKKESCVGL

Cholinesterase [5] = target: T1, Cholinesterase; assay: Inhibition of human serum BuChE assessed as residual activity at 0.1 times IC50 using acetylcholine iodide as substrate measured after dilution by Ellman's method relative to control
[6] = Acute toxicity in Kunming mouse assessed as damage in kidney at 50 to 1000 mg/kg measured after 7 days; format: organism-based; settings: in vivo, 168 h, dose 50-1000 mg/kg, time 7 day
[7] = Acute toxicity in Kunming mouse assessed as damage in lung at 50 to 1000 mg/kg measured after 7 days; format: organism-based; settings: in vivo, 168 h, dose 50-1000 mg/kg, time 7 day
[8] = Acute toxicity in Kunming mouse assessed as piloerection at 250 to 1000 mg/kg measured after 24 hrs; format: organism-based; settings: in vivo, dose 250-1000 mg/kg
[9] = Effect on tau protein level in mouse HT22 cells transfected with pRK5-GFP-Tau P301L plasmid assessed as fluorescence intensity at 5 uM by fluorescence microscopy (reference value: 33.6); format: functional, HT-22
[10] = Effect on tau protein level in mouse HT22 cells transfected with pRK5-GFP-Tau P301L plasmid assessed as fluorescence intensity at 10 uM by fluorescence microscopy (reference value: 33.6); format: functional, HT-22
[11] = Effect on APP protein level in mouse HT22 cells transfected with pEGFP-N1-APP plasmid assessed as fluorescence intensity at 2.5 uM by fluorescence microscopy (reference value: 33.2); format: functional, HT-22
[12] = Effect on APP protein level in mouse HT22 cells transfected with pEGFP-N1-APP plasmid assessed as fluorescence intensity at 5 uM by fluorescence microscopy (reference value: 33.2); format: functional, HT-22
HT-22 [13] = assay: Effect on APP protein level in mouse HT22 cells transfected with pEGFP-N1-APP plasmid assessed as reduction in fluorescence intensity by fluorescence microscopy; format: functional, cell-based
[14] = Permeability of compound by PAMPA-BBB assay; format: ADME; settings: read-out: permeability
[15] = Toxicity in Zebrafish; parameters: species or system Danio rerio; settings: in vivo
[16] = Toxicity in Zebrafish assessed as mortality at 3.125 ug/ml relative to control; parameters: species or system Danio rerio; settings: in vivo, at 3.125 µg/mL
[17] = Toxicity in Zebrafish assessed as mortality at 12.5 ug/ml relative to control; parameters: species or system Danio rerio; settings: in vivo, at 12.5 µg/mL
[18] = Toxicity in Zebrafish assessed as mortality at 50 ug/ml relative to control; parameters: species or system Danio rerio; settings: in vivo, at 50 µg/mL
[19] = Toxicity in Zebrafish assessed as induction of yolk sac absorption delay at 3.125 ug/ml relative to control; parameters: species or system Danio rerio; settings: in vivo, at 3.125 µg/mL
[20] = Toxicity in Zebrafish assessed as absence of blood flow at 6.25 ug/ml relative to control; parameters: species or system Danio rerio; settings: at 6.25 µg/mL
[21] = Toxicity in Zebrafish assessed as small or misshapen brain at 6.25 ug/ml relative to control; format: tissue-based, Danio rerio; settings: in vivo, at 6.25 µg/mL
[22] = Toxicity in Zebrafish assessed as small or misshapen eyes at 6.25 ug/ml relative to control; parameters: species or system Danio rerio; settings: in vivo, at 6.25 µg/mL
[23] = Toxicity in Zebrafish assessed as effect on kidney at 6.25 ug/ml relative to control; parameters: species or system Danio rerio; settings: in vivo, at 6.25 µg/mL
[24] = Toxicity in Zebrafish assessed as induction of yolk sac absorption delay at 6.25 ug/ml relative to control; parameters: species or system Danio rerio; settings: in vivo, at 6.25 µg/mL
[25] = Toxicity in Zebrafish assessed as induction of kidney edema at 6.25 ug/ml relative to control; parameters: species or system Danio rerio; settings: in vivo, at 6.25 µg/mL
[26] = Toxicity in Zebrafish assessed as degenerating muscle within the somites at 6.25 ug/ml relative to control; parameters: species or system Danio rerio; settings: in vivo, at 6.25 µg/mL
[27] = Toxicity in Zebrafish assessed as change in body shape at 6.25 ug/ml relative to control; parameters: species or system Danio rerio; settings: in vivo, at 6.25 µg/mL
[28] = Toxicity in AlCl3-induced Zebrafish model of Alzheimer's disease assessed as mortality at 2.5 ug/ml relative to control; parameters: species or system Danio rerio; settings: in vivo, at 2.5 µg/mL
Danio rerio [29] = species on record: Danio rerio; assay: Antialzheimer activity in AlCl3-induced Zebrafish model of Alzheimer's disease assessed as motility distance at 1 ug/ml (reference value: 5346 mm); format: functional; settings: dose 1 µg/ml
Danio rerio [30] = species on record: Danio rerio; assay: Antialzheimer activity in AlCl3-induced Zebrafish model of Alzheimer's disease assessed as increase in motility distance at […] relative to control; format: functional; settings: dose 0.11 µg/ml
Danio rerio [31] = species on record: Danio rerio; assay: Antialzheimer activity in AlCl3-induced Zebrafish model of Alzheimer's disease assessed as change in motility speed at […] (reference value: 1.08 mm/s); format: functional; settings: dose 0.11 µg/ml
Danio rerio [32] = species on record: Danio rerio; assay: Antialzheimer activity in AlCl3-induced Zebrafish model of Alzheimer's disease assessed as change in motility speed at 0.33 ug/ml (reference value: 1.08 mm/s); format: functional; settings: dose 0.33 µg/ml
Danio rerio [33] = species on record: Danio rerio; assay: Antialzheimer activity in AlCl3-induced Zebrafish model of Alzheimer's disease assessed as change in motility speed at 1 ug/ml (reference value: 1.08 mm/s); format: functional; settings: dose 1 µg/ml
Danio rerio [34] = species on record: Danio rerio; assay: Antialzheimer activity in AlCl3-induced Zebrafish model of Alzheimer's disease assessed as increase in motility speed at 1 ug/ml relative to control; format: functional; settings: dose 1 µg/ml
Danio rerio [35] = species on record: Danio rerio; assay: Protection against amyloid beta (1 to 42)-induced zebrafish model of vascular injury assessed as vascular injury rate at […] (reference value: 73.3%); format: functional; settings: dose 0.11 µg/ml
[36] = Acute toxicity in Kunming mouse assessed as mortality at 50 to 1000 mg/kg; format: organism-based; settings: in vivo, dose 50-1000 mg/kg
[37] = Acute toxicity in Kunming mouse assessed as dyspnea at 250 to 1000 mg/kg; format: organism-based; settings: in vivo, dose 250-1000 mg/kg
[38] = Acute toxicity in Kunming mouse assessed as decrease in autonomic activity at 250 to 1000 mg/kg; format: organism-based; settings: in vivo, dose 250-1000 mg/kg
Mus musculus [39] = assay: Improvement in cognitive impairment in scopolamine-induced mouse model of amnesia assessed as change in spontaneous alteration at 20 mg/kg by Y-maze test (reference value: 40.8%); format: functional
Mus musculus [40] = assay: Improvement in cognitive impairment in scopolamine-induced mouse model of amnesia assessed as increase in spontaneous alteration at 5 to 10 mg/kg by Y-maze test; format: functional, organism-based; settings: dose 5-10 mg/kg

CCN(C)C(=O)Oc1ccc(/C=C/C(=O)N2CCc3ccccc3C2)cc1OC
Activity (HT-22 [1]): Active
Flu intensity [2]: 33.3
Activity (HT-22 [3]): Non-Toxic
viability at 1 µM (SH-SY5Y): 68.1%
Activity (Cholinesterase [4]): 53.2%
Activity (Cholinesterase [5]): 47.1%
Activity [6]: Non-Toxic
Activity [7]: Non-Toxic
Activity [8]: Non-Toxic
Flu intensity [9]: 23.9
Flu intensity [10]: 18.7
Flu intensity [11]: 29.8
Flu intensity [12]: 13.6
Activity (HT-22 [13]): Dose-dependent effect
Papp [14]: 21.4 ×10⁻⁶ cm/s
LC10 [15]: 6.25 µg/mL (≈ 15.8 µM)
MNTC ([15]; read-out: MNCC): 3.12 µg/mL
mortality at 3.125 ug/ml [16]: 0%
mortality at 12.5 ug/ml [17]: 100%
mortality at 50 ug/ml [18]: 100%
Activity [19]: 40%
Activity [20]: 16.7%
Activity [21]: 26.7%
Activity [22]: 26.7%
Activity [23]: 23.3%
Activity [24]: 100%
Activity [25]: 33.3%
Activity [26]: 36.7%
Activity [27]: 53.3%
mortality at 2.5 ug/ml [28]: 0%
Activity (Danio rerio [29]): 7024 mm
Efficacy (Danio rerio [30]): 54.9%
Activity (Danio rerio [31]): 1.79 millimeter/sec
Activity (Danio rerio [32]): 2.06 millimeter/sec
Activity (Danio rerio [33]): 2.15 millimeter/sec
Efficacy (Danio rerio [34]): 86.3%
Activity (Danio rerio [35]): 80%
Activity [36]: Non-Toxic
Activity [37]: Toxic
Activity [38]: Toxic
Activity (Mus musculus [39]): 61.6%
Activity (Mus musculus [40]): Active

— ChEMBL document CHEMBL4680246, “Design, synthesis and biological evaluation of novel O-carbamoyl ferulamide derivatives as multi-target-directed ligands for the treatment of Alzheimer's disease” (Eur J Med Chem, 2020)
